In publication PMC8333309, “Mechanism of LolCDE as a molecular extruder of bacterial triacylated lipoproteins” (Nature Communications, 2021):

Molecular target: T1, LolCDE (Escherichia coli, UniProt P75957)
T1 construct: gene lolD; co-expressed in E. coli BL21(DE3); purified in DDM, reconstituted into MSP1D1/POPG nanodiscs; co-purifies with lipoprotein; with Lipoprotein-releasing system transmembrane protein LolC; Lipoprotein-releasing system transmembrane protein LolE
T1 sequence (P75957 1-233): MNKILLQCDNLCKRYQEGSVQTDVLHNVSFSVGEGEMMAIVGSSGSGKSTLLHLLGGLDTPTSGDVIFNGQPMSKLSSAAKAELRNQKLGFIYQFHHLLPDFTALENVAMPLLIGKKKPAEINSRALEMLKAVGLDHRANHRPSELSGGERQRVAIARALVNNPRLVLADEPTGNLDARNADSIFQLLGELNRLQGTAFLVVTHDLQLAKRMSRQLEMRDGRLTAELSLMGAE
T1 sequence (P0ADC3 1-399 partner): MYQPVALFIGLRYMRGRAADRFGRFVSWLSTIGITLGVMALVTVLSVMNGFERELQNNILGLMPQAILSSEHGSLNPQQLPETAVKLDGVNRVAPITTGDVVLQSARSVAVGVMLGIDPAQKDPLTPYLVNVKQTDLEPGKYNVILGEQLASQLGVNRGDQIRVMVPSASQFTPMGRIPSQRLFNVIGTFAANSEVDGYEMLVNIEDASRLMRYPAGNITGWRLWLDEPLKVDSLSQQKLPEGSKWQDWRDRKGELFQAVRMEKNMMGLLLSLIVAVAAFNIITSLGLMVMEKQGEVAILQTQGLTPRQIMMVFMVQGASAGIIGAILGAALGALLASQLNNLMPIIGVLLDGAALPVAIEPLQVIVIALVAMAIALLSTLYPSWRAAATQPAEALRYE
T1 sequence (P75958 2-414 partner): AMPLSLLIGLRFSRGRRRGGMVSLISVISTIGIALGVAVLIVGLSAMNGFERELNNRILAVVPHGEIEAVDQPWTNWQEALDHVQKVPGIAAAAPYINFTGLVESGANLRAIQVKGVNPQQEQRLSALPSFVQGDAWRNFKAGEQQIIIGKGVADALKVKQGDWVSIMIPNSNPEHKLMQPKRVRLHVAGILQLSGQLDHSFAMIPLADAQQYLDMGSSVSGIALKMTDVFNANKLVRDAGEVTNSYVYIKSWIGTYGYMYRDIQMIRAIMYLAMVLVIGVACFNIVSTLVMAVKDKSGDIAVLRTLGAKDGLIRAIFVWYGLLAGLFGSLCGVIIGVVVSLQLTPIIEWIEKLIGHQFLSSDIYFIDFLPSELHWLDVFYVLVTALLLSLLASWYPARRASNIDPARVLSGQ
Test: colorimetric phosphate-release ATPase assay
Format: biochemical
Conditions: LolCDE in nanodiscs; 4 mM ATP, 4 mM MgCl2, pH 8, 37 °C; traps ADP-vanadate in the ATP site

[O]=[V]([OH])([OH])[OH] [orthovanadate]
% inhibition at 0.1 mM: ~ 90%
